Key:
Leishmania donovani [1] = experiment: GSK_TCAKS: pIC50 Leishmania donovani Imaging: Infected Macrophages. Assay plates (384-well) were prepared by adding 250nL of compound to each well. For single shot assay, the final compound concentration was 5 uM. […] Automated image analysis was performed with a script developed on Acapella High Content Imaging and Analysis Software (PerkinElmer). Output: Percent of infected macrophage cells were reported for each well.; format: functional, organism-based, Homo sapiens; conditions: THP-1
Leishmania donovani [2] = experiment: GSK_TCAKS: pIC50 Leishmania donovani viability assay using fluorescence intensity. Assay plates (1536-well) were prepared by adding 30nL per well of compound. For single shot assay, the final compound concentration was 5uM. […] Briefly, eGFP LdBOB axenic amastigotes were harvested, fixed and counted in a CASY cell counter (Roche-Applied Science). A final concentration of 1.5 * 10^5 cells per well were prepared in amastigote media containing 500 U/mL penicillin/streptomycin (Invitrogen) and 6uL was dispensed to each experimental well using a Multidrop Combi dispenser (Thermo Scientific). 6uL of assay media was dispensed to control columns used as reference for 100% compound response. Following incubation for 72 h at 37C, 5% CO2, 2 uL of resazurin was added to each well at a final concentration of 0.5 mM in phosphate buffered saline (PBS) with IGEPAL (Sigma-Aldrich), 0.05% (v/v).; format: functional, organism-based
[3] = GSK_TCAKS: pIC50 HepG2 human cell line viability assay using luminiscence. […] Seeding density was checked to ensure that new mono-layers were not more than 50% confluent at the time of harvesting. Cell suspension was added to 500 mL of the same medium at a final density of 1.2 * 10^5 cells/mL. This cell suspension was dispensed (25 uL, 3000 cells per well) into 384-well clear-bottom plates using a Multidrop Combi dispenser. Prior to addition of the cell suspension, the screening compounds (250 nL) were pre-dispensed into the plates with an Echo liquid handler. Plates were incubated for 48 h at 37C, 5% CO2. After incubation, plates equilibrated at room temperature for 30 min before proceeding to develop the luminescent signal. The signal developer, CellTiter-Glo Reagent, was allowed to equilibrate at room temperature for 30 min and added to the plates (25uL per well) using a Multidrop Combi dispenser. Plates were left for 10 min at room temperature for stabilization and then read using a ViewLux.; format: toxicity, cell-based
[4] = target: Sterol 14-alpha demethylase (Trypanosoma cruzi (strain CL Brener), UniProt Q7Z1V1); experiment: GSK_TCAKS: pIC50 CYP51 from Trypanosoma cruzi.; format: functional
Sterol 14-alpha demethylase, sequence (Q7Z1V1 whole entry): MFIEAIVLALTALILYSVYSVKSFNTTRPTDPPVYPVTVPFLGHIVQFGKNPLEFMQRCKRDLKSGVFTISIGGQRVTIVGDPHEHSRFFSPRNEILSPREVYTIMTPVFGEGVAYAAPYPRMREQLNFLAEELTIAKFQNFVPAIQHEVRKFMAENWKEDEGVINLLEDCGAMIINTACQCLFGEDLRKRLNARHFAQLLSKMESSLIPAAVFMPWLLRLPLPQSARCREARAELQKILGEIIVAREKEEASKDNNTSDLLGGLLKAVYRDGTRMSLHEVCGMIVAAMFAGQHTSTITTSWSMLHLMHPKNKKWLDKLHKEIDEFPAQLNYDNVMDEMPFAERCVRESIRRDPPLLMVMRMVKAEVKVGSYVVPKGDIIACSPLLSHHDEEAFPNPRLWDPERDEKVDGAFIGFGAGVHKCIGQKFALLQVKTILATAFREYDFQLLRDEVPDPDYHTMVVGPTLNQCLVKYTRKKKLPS

Leishmania donovani [5] = experiment: GSK_TCAKS: pIC50 Leishmania donovani Imaging: THP-1 Host Macrophages. Assay plates (384-well) were prepared by adding 250nL of compound to each well. For single shot assay, the final compound concentration was 5 uM. […] Automated image analysis was performed with a script developed on Acapella High Content Imaging and Analysis Software (PerkinElmer). Output: THP-1 cell count were reported for each well.; format: functional, organism-based, Homo sapiens
Trypanosoma cruzi [6] = experiment: (§1) GSK_TCAKS: pIC50 H2C9 Imaging: H9c2 Host Cardiomyocytes. […] Cells were then washed once with PBS before infection. T. cruzi trypomastigotes, collected at days 5 to 8 after infection from LLC-MK2 parasite infected cultures, were allowed to swim out for 4h at 37C from a centrifuged pellet (2,500 rpm/10 min/room temperature). Trypomastigotes were then collected and counted in a CASY Cell Counter. Trypomastigotes, in supplemented DMEM, were added to H9c2 cultures in a multiplicity of infection of 1 and incubated for 18 h. Cells were washed once with PBS before incubation of the infected H9c2 monolayer with trypsin (Life-Technologies) to detach cells from the flask. Cells were counted in a CASY Cell Counter using a 150 um capillary and their density set at 5 * 10^4 cells per mL in supplemented assay DMEM. Infected H9c2 were dispensed into 384-well poly-lysine coated assay plates at 50uL per well using a Multidrop Combi dispenser. After seeding them, the plates were incubated at 37C, 5% CO2 for 72h. Cultures were then fixed and stained by addition of 50 uL of a solution containing 8% formaldehyde and 4 uM DRAQ5 DNA dye (BioStatus, UK) per well. […] Five images were collected per well for reliable statistical analysis. Automated image analysis was performed with a script developed on Acapella High Content Imaging and Analysis Software (PerkinElmer). Output: Number of H9c2 Host Cardiomyocytes nuclei to determine drug-related cytotoxicity.; format: functional, organism-based, Rattus norvegicus; conditions: H9c2, 4 h
Trypanosoma cruzi [7] = experiment: as §1, with “Trypanosoma cruzi” for “H2C9”, “Amastigotes/Cell.” for “H9c2 Host Cardiomyocytes.”, “number” for “Number”, “amastigotes per cell as infection level measurement.” for “H9c2 Host Cardiomyocytes nuclei to determine drug-related cytotoxicity.”; format: functional, organism-based, Rattus norvegicus; conditions: H9c2, 4 h
Trypanosoma cruzi [8] = experiment: as §1, with “Trypanosoma cruzi” for “H2C9”, “Infected Cells.” for “H9c2 Host Cardiomyocytes.”, “percentage” for “Number”, “infected cells per well as a second infection marker.” for “H9c2 Host Cardiomyocytes nuclei to determine drug-related cytotoxicity.”; format: functional, organism-based, Rattus norvegicus; conditions: H9c2, 4 h
Trypanosoma cruzi [9] = experiment: GSK_TCAKS: pIC50 Trypanosoma cruzi viability assay using beta-GAL activity. This assay was run at single shot at 5uM compound concentration per well. The biological reagents consisted of NIH-3T3 host cells and trypomastigotes parasitic cells; both cell types were set to a 3.3 * 10^5 cells/mL dilution in assay DMEM by means of a CASY cell counter device using a 60um capillary. 6 uL of the mixture were dispensed per well (about 1 * 10^3 host-cells and 1 * 10^3 parasites) with a Multidrop Combi dispenser. […] In all wells, the percentage of DMSO never exceeded 0.5%. Plates incubated for four days at 37C, 5% CO2. The substrate used for the assay fluorescence intensity (FLINT) readout was resorufin-beta-D-galactopiranoside (Sigma-Aldrich) at 5uM per well. It was diluted in PBS supplemented with the soft detergent Igepal (Fluka).; format: functional, organism-based, Mus musculus; conditions: Tulahuen, NIH3T3
[10] = tested on: Trypanosoma brucei brucei; experiment: GSK_TCAKS: pIC50 Trypanosoma brucei viability assay using fluorescence intensity. Assay plates (1536-well) were prepared by dispensing 25nL of compound solution per well using an Echo acoustic dispenser (Labcyte).; format: functional, organism-based; conditions: Lister 427, 2 h
[11] = tested on: Trypanosoma brucei brucei; experiment: GSK_TCAKS: pIC50 Trypanosoma brucei viability assay using luminiscence. Assay plates (1536-well) were prepared. T. brucei cultures were harvested and counted in a CASY cell counter. A parasite suspension was prepared at a final concentration of 5 * 10^4 cells/mL in complete HMI9 medium and 6uL was dispensed to all wells containing compounds using a Multidrop Combi dispenser. 6uL of HMI9 media with 0.4% DMSO were dispensed to control columns. Plates were incubated for 24 h at 37C, 5% CO2 then tempered for 10 min at room temperature. ATP content was quantified by adding 4 uL of CellTiter-Glo Reagent (Promega) according to the manufacturer's instructions. Luminescence was measured using a ViewLux.; format: functional, organism-based; conditions: Lister 427, CASY
Leishmania donovani [12] = experiment: GSK_TCAKS: pIC50 Leishmania donovani Imaging: Amastigotes/Macrophages. Assay plates (384-well) were prepared by adding 250nL of compound to each well. For single shot assay, the final compound concentration was 5 uM. […] Automated image analysis was performed with a script developed on Acapella High Content Imaging and Analysis Software (PerkinElmer). Output: Average number of amastigotes per macrophage cell were reported for each well.; format: functional, organism-based, Homo sapiens; conditions: THP-1

Compound | IC50 (Leishmania donovani [1]) [µM] | IC50 (Leishmania donovani [2]) [µM] | IC50 at 48 h [3] [µM] | IC50 [4] [µM] | IC50 (Leishmania donovani [5]) [µM] | IC50 (Trypanosoma cruzi [6]) [µM] | IC50 (Trypanosoma cruzi [7]) [µM] | IC50 (Trypanosoma cruzi [8]) [µM] | IC50 (Trypanosoma cruzi [9]) [µM] | IC50 [10] [µM] | IC50 [11] [µM] | IC50 (Leishmania donovani [12]) [µM]
O=C(CCCNC(=O)c1ccc(Cl)cc1)Nc1nc(-c2ccccn2)cs1 | 5.01 | > 50.1 | > 100 | 3.16 | > 50.1 | 25.1 | 10 | 25.1 | 6.31 | 7.94 | 12.6 | 3.16
Cn1c(CC(=O)NNC(=O)c2ccc3ccccc3n2)nc2ccccc21 | 1.26 | 6.31 | > 100 | 31.6 | > 50.1 | > 50.1 | 6.31 | 5.01 | 3.16 | 7.94 | 6.31 | 0.794
NS(=O)(=O)c1ccc(Nc2ncc3cccc(OC4CCNCC4)c3n2)cc1 | 20 | 39.8 | > 100 | > 100 | 1 | 0.631 | 0.02 | 0.0501 | 1.78 | 0.2 | 0.316 | 15.8
Cc1cc(C)n(-c2nc(NC(C)C)nc(NC(C)(C)C)n2)n1 | 5.01 | 3.16 | > 100 | > 100 | 6.31 | 0.2 | 0.501 | 1.58 | 2.24 | 20 | 12.6 | 3.98
O=C(NCC(c1cccs1)N1CCOCC1)c1ccc([N+](=O)[O-])o1 (centres undefined) | 25.1 | 31.6 | 20 | 10 | 25.1 | 5.01 | 15.8 | 15.8 | 3.16 | 0.316 | 0.316 | 15.8
Cn1ccnc1CN1CCc2[nH]cnc2C1c1ccccc1OCc1ccccc1 (centres undefined) | > 50.1 | > 50.1 | > 100 | 7.94 | > 50.1 | > 50.1 | > 50.1 | > 50.1 | 39.8 | 0.398 | 0.501 | > 50.1
Cc1cc(C)n(-c2nc(NC(C)(C)C)nc(N3CCOCC3)n2)n1 | 7.94 | 6.31 | 100 | > 100 | > 50.1 | 1.26 | 3.16 | 10 | 5.01 | 12.6 | 3.98 | 3.98
CCc1cc(C(=O)Nc2nccn2-c2ccccc2)cs1 | 12.6 | 6.31 | > 100 | > 100 | 31.6 | 20 | 3.16 | 5.01 | 3.16 | 3.16 | 3.98 | 5.01
Cc1nc2c(-c3nc(-c4ccccc4N)n[nH]3)cccn2c1C | 1.58 | 6.31 | 15.8 | 3.16 | 7.94 | 5.01 | 1.58 | 2.51 | 4.47 | 1 | 2.51 | 1
Cc1c(Nc2cc(C3CC3)n[nH]2)ccc(C#N)c1Cl | 39.8 | 20 | 39.8 | 20 | 25.1 | 10 | 15.8 | 25.1 | 2.51 | 0.398 | 0.631 | 25.1
Cn1ccnc1-c1nc(NCc2ccccc2Cl)cc(C2CC2)n1 | 0.631 | 1.58 | 20 | 39.8 | 7.94 | 0.631 | 0.794 | 0.794 | 0.631 | 2 | 1.58 | 0.2
O=C(c1ccc(Cl)cc1)c1ccc(OC(=O)N2CCOCC2)cc1 | 5.01 | 6.31 | > 100 | 39.8 | > 50.1 | > 50.1 | 6.31 | > 50.1 | 12.6 | 7.94 | > 39.8 | 2

— ChEMBL document CHEMBL3430912, “GSK Tres Cantos Anti-Kinetoplastid Screening (TCAKS) Data”
